On to `COc1ccn2nc(-c3ccccc3)c(-c3ccc(=O)n([C@@H]4CCOC4)n3)c2c1` [Example 119, 5-Methoxy-3-[3-oxo-2-((3R)-tetrahydrofuran-3-yl)-2,3-dihydropyridazin-6-yl]-2-phenylpyrazolo[1,5-a]pyridine], for which the melting point lay in the range of 194 to 195 °C. For the molecule `CC(C)n1nc(-c2c(-c3ccccc3)nn3ccc(OCC(=O)N4CCN(C(=O)N(C)C)CC4)cc23)ccc1=O` [Example 55, N,N-dimethyl-4-[{3-(3-oxo-2-isopropyl-2,3-dihydropyridazin-6-yl)-2-phenylpyrazolo[1,5-a]pyridin-5-yl}oxy]acetyl-1-piperazine carboxamide], the melting point is 151 to 152 °C. Consider `COCCNC(=O)COc1ccn2nc(-c3ccccc3)c(-c3ccc(=O)n(C(C)C)n3)c2c1` [Example 66, N-(2-Methoxyethyl)-2-[{3-(3-oxo-2-isopropyl-2,3-dihydropyridazin-6-yl)-2-phenylpyrazolo[1,5-a]pyridin-5-yl}oxy]acetamide], for which the melting point lay in the range of 144.5 to 145.5 °C. Molecule `CCOc1ccn2nc(-c3ccccc3)c(-c3ccc(=O)n(C(C)C)n3)c2c1` [Example 26, 5-Ethoxy-3-(3-oxo-2-isopropyl-2,3-dihydropyridazin-6-yl)-2-phenylpyrazolo[1,5-a]pyridine] had a melting point of 181 to 182 °C. The same measure for `COCN(COC)c1ccn2nc(-c3ccccc3)c(-c3ccc(=O)n(C(C)C)n3)c2c1` [Example 154, 5-[bis(methoxymethyl)amino]-3-(3-oxo-2-isopropyl-2,3-dihydropyridazin-6-yl)-2-phenylpyrazolo[1,5-a]pyridine]: 148 to 150 °C; for `CC(C)n1nc(-c2c(-c3ccccc3)nn3ccc(C(=O)NCCOc4ccccc4)cc23)ccc1=O` [Example 92, N-(2-Phenoxyethyl)-3-(3-oxo-2-isopropyl-2,3-dihydropyridazin-6-yl)-2-phenylpyrazolo[1,5-a]pyridine-5-carboxamide]: 156 to 157 °C. For `CC(=O)COc1ccn2nc(-c3ccccc3)c(-c3ccc(=O)n(C(C)C)n3)c2c1` [Example 27, 5-(2-Oxopropoxy)-3-(3-oxo-2-isopropyl-2,3-dihydropyridazin-6-yl)-2-phenylpyrazolo[1,5-a]pyridine] the value was 172.5 to 173.5 °C; for `COc1ccn2nc(-c3ccc(F)cc3)c(-c3ccc(=O)n(C(C)C)n3)c2c1` [Example 129, 5-Methoxy-3-(3-oxo-2-isopropyl-2,3-dihydropyridazin-6-yl)-2-(4-fluorophenyl)pyrazolo[1,5-a]pyridine], 176 to 177 °C. The molecule `CC(C)n1nc(-c2c(-c3ccccc3)nn3ccc(N4CCN(C(=O)CN(C)C)CC4)cc23)ccc1=O` [Example 114, 5-{4-[(dimethylamino)acetyl]-1-piperazinyl}-3-(3-oxo-2-isopropyl-2,3-dihydropyridazin-6-yl)-2-phenylpyrazolo[1,5-a]pyridine] came in with a melting point of 129 to 130 °C. As for `CC(C)n1nc(-c2c(-c3ccccc3)nn3ccc(C(=O)NCCN(C)C)cc23)ccc1=O` [Example 76, N-[2-(Dimethylamino)ethyl]-3-(3-oxo-2-isopropyl-2,3-dihydropyridazin-6-yl)-2-phenylpyrazolo[1,5-a]pyridine-5-carboxamide], the melting point was in the range of 157 to 158 °C. Turning to `CC(C)CNC(=O)COc1ccn2nc(-c3ccccc3)c(-c3ccc(=O)n(C(C)C)n3)c2c1` [Example 45, N-Isobutyl-2-{[3-(3-oxo-2-isopropyl-2,3-dihydropyridazin-6-yl)-2-phenylpyrazolo [1,5-a]pyridin-5-yl]oxy}acetamide], the melting point was 167.5 to 168.5 °C. `CC(C)n1nc(-c2c(-c3ccccc3)nn3ccc(C(=O)NCc4ccccn4)cc23)ccc1=O` [Example 144, N-(2-Pyridinylmethyl)-3-(3-oxo-2-isopropyl-2,3-dihydropyridazin-6-yl)-2-phenylpyrazolo[1,5-a]pyridine-5-carboxamide] displayed a melting point of 193 to 194 °C. The same measure for `COc1cccc(CNC(=O)COc2ccn3nc(-c4ccccc4)c(-c4ccc(=O)n(C(C)C)n4)c3c2)c1` [Example 59, 2-{[3-(3-Oxo-2-isopropyl-2,3-dihydropyridazin-6-yl)-2-phenylpyrazolo[1,5-a]pyridin-5-yl]oxy}-N-(3-methoxybenzyl)acetamide]: 166 to 167.5 °C; for `CC(C)n1nc(-c2c(-c3ccccc3)nn3ccc(C(=O)NC4CC4)cc23)ccc1=O` [Example 139, N-cyclopropyl-3-(3-oxo-2-isopropyl-2,3-dihydropyridazin-6-yl)-2-phenylpyrazolo[1,5-a]pyridine-5-carboxamide]: 184 to 185 °C. Molecule `CC(C)n1nc(-c2c(-c3ccccc3)nn3ccc(OCCN4CCCC4=O)cc23)ccc1=O` [Example 28, 5-[2-(2-Oxo-1-pyrrolidinyl)ethoxy]-3-(3-oxo-2-isopropyl-2,3-dihydropyridazin-6-yl)-2-phenylpyrazolo [1,5-a]pyridine] gave a melting point of 162 to 163 °C.

With `CC(C)n1nc(-c2c(-c3ccccc3)nn3ccc(OCc4ccccn4)cc23)ccc1=O` [Example 12, 5-(2-Pyridinylmethoxy)-3-(3-oxo-2-isopropyl-2,3-dihydropyridazin-6-yl)-2-phenylpyrazolo[1,5-a]pyridine], the melting point was in the range of 150 to 151 °C.

`CC(C)n1nc(-c2c(-c3ccccc3)nn3ccc(N4C[C@@H](C)O[C@@H](C)C4)cc23)ccc1=O` [Example 100, 5-(cis-2,6-Dimethyl-4-morpholinyl)-3-(3-oxo-2-isopropyl-2,3-dihydropyridazin-6-yl)-2-phenylpyrazolo[1,5-a]-pyridine] displayed a melting point of 176 to 177 °C.

`CCN(CC)C(=O)COc1ccn2nc(-c3ccccc3)c(-c3ccc(=O)n(C(C)C)n3)c2c1` [Example 41, N,N-Diethyl-2-{[3-(3-oxo-2-isopropyl-2,3-dihydropyridazin-6-yl)-2-phenylpyrazolo[1,5-a]pyridin-5-yl]oxy}acetamide] displayed a melting point of 125 to 126.5 °C. In turn, `CC(C)n1nc(-c2c(-c3ccccc3)nn3ccc(C(=O)N4CCC(c5ccccc5)CC4)cc23)ccc1=O` [Example 84, 5-[(4-Phenyl-1-piperidinyl)carbonyl]-3-(3-oxo-2-isopropyl-2,3-dihydropyridazin-6-yl)-2-phenylpyrazolo[1,5-a]-pyridine] yielded a melting point of 184 to 185 °C. For `CC(C)n1nc(-c2c(-c3ccccc3)nn3c(N)cccc23)ccc1=O` [Example 134, 7-Amino-3-(3-oxo-2-isopropyl-2,3-dihydropyridazin-6-yl)-2-phenylpyrazolo[1,5-a]pyridine] the value was 218 to 219 °C; for `CC(C)n1nc(-c2c(-c3ccccc3)nn3ccc(NS(C)(=O)=O)cc23)ccc1=O` [Example 150, 5-Methylsulfonylamino-3-(3-oxo-2-isopropyl-2,3-dihydropyridazin-6-yl)-2-phenylpyrazolo[1,5-a]pyridine], 193 to 194 °C. For `CCOCCNC(=O)COc1ccn2nc(-c3ccccc3)c(-c3ccc(=O)n(C(C)C)n3)c2c1` [Example 67, N-(2-Ethoxyethyl)-2-{[3-(3-oxo-2-isopropyl-2,3-dihydropyridazin-6-yl)-2-phenylpyrazolo[1,5-a]pyridin-5-yl]oxy}acetamide], the melting point lay within 126.5 to 127.5 °C. `CC(C)n1nc(-c2c(-c3ccccc3)nn3ccc(OC4CCOCC4)cc23)ccc1=O` [Example 46, 5-(Tetrahydropyran-4-yl)oxy-3-(3-oxo-2-isopropyl-2,3-dihydropyridazin-6-yl)-2-phenylpyrazolo[1,5-a]pyridine] yielded a melting point of 210.5 to 211 °C. The molecule `CC(C)n1nc(-c2c(-c3ccccc3)nn3ccc(OCc4cccnc4)cc23)ccc1=O` [Example 20, 5-(3-Pyridinylmethoxy)-3-(3-oxo-2-isopropyl-2,3-dihydropyridazin-6-yl)-2-phenylpyrazolo[1,5-a]pyridine] returned a melting point of 145 to 146 °C. Molecule `CCCn1nc(-c2c(-c3ccc(F)cc3)nn3ccc(OC)cc23)ccc1=O` [Example 132, 5-Methoxy-3-(3-oxo-2-propyl-2,3-dihydropyridazin-6-yl)-2-(4-fluorophenyl)pyrazolo[1,5-a]pyridine] displayed a melting point of 190 to 191 °C. For `COc1ccn2nc(-c3ccccc3F)c(-c3ccc(=O)n(C)n3)c2c1` [Example 126, 5-Methoxy-3-(3-oxo-2-methyl-2,3-dihydropyridazin-6-yl)-2-(2-fluorophenyl)pyrazolo[1,5-a]pyridine] the value was 220.5 to 221.5 °C.

Molecule `CC(C)n1nc(-c2c(-c3ccccc3)nn3ccc(OCC(=O)NC4CCC(O)CC4)cc23)ccc1=O` (stereo not shown) [Example 64, N-(4-Hydroxycyclohexyl)-2-{[3-(3-oxo-2-isopropyl-2,3-dihydropyridazin-6-yl)-2-phenylpyrazolo[1,5-a]pyridin-5-yl]oxy}acetamide] returned a melting point of 146 to 148 °C. Consider `CC(C)n1nc(-c2c(-c3ccccc3)nn3ccc(OCCN4C[C@@H](C)O[C@@H](C)C4)cc23)ccc1=O` [Example 24, 5-[2-{(2R,6S)-2,6-Dimethyl-4-morpholinyl}ethoxy]-3-(3-oxo-2-isopropyl-2,3-dihydropyridazin-6-yl)-2-phenylpyrazolo[1,5-a]pyridine], for which the melting point was 157.5 to 158 °C. For `CCCOc1ccn2nc(-c3ccccc3)c(-c3ccc(=O)n(C(C)C)n3)c2c1` [Example 21, 5-Propoxy-3-(3-oxo-2-isopropyl-2,3-dihydropyridazin-6-yl)-2-phenylpyrazolo[1,5-a]pyridine] the value was 161.5 to 162.5 °C; for `COc1ccn2nc(-c3ccccc3)c(-c3ccc(=O)n(C4CCN(C)CC4)n3)c2c1` [Example 122, 5-methoxy-3-[3-oxo-2-(1-methylpiperidin-4-yl)-2,3-dihydropyridazin-6-yl]-2-phenylpyrazolo[1,5-a]pyridine], 154 to 155 °C.

`COc1ccn2nc(-c3ccc(F)cc3)c(-c3ccc(=O)n(C)n3)c2c1` [Example 130, 5-Methoxy-3-(3-oxo-2-methyl-2,3-dihydropyridazin-6-yl)-2-(4-fluorophenyl)pyrazolo[1,5-a]pyridine]: the melting point is 221 to 222 °C.

For the origin of these results see patent publication US20040110763A1, “Pyrazolopyridine compound and pharmaceutical use thereof” (priority 2000, published 2004).
